Results as given in patent US6896895B2, “Carotenoid esters, carotenoid-enriched feeds, and methods of pigmenting foods and foodstuffs” (DSM IP Assets B.V., priority 2000, dated 2005).

Assay: Carotenoid ester content in plasma, back skin and abdominal fat of broilers (HPLC)
Assay type: in vivo, broiler chickens (Ross 308, Ross 508)
Details: for concentrations determined as equivalents of the ethyl β-apo-8′-carotenoate, in the skin: in comparison to the other 12 tested carotenoid esters
In short: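 Ross 308/508 broilers, raised on low-carotenoid basal diet (<2 mg xanthophylls/kg) to day 15 or 22, then fed pigment-supplemented diet for three weeks; plasma sampled day 42, back skin and abdominal fat pooled per group at slaughter on day 44. Carotenoid esters quantified by normal-phase HPLC (0.5% acetone in n-hexane) calibrated with all-E ethyl β-apo-8′-carotenoate; Z-isomers corrected by factor 1.4.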

[1] = average over doses, in relation to the controls (CAROPHYLL Yellow) of the same trial, Table 3
[2] = trial MC-11/99, 8.88 mg/kg feed
[3] = trial MC-11/99, 13.33 mg/kg feed
[4] = trial MC-24/99, 20 mg/kg feed, in relation to the controls of the same trial
[5] = trial MC-24/99, 30 mg/kg feed, in relation to the controls of the same trial

## CC1=C(/C=C/C(C)=C/C=C/C(C)=C/C=C/C=C(C)/C=C/C=C(\C)C(=O)OC(C)C)C(C)(C)CCC1 [compound (17), isopropyl beta-apo-8′-carotenoate]
[1]
  Analytical Content as Equivalent of Ethyl β-apo-8′-carotenoate Fat %: 88%
  Analytical Content as Equivalent of Ethyl β-apo-8′-carotenoate Plasma %: 129%
  Analytical Content as Equivalent of Ethyl β-apo-8′-carotenoate Skin %: 134%
  concentrations determined as equivalents of the ethyl β-apo-8′-carotenoate, in the skin: substantially higher
Trial MC-02/99, 10 mg/kg feed
  Analytical Content as Equivalent of Ethyl β-apo-8′-carotenoate Fat: 1.8 mg/kg
  Analytical Content as Equivalent of Ethyl β-apo-8′-carotenoate Plasma: 6.3 mg/kg
  Analytical Content as Equivalent of Ethyl β-apo-8′-carotenoate Skin: 2.0 mg/kg
Trial MC-02/99, 20 mg/kg feed
  Analytical Content as Equivalent of Ethyl β-apo-8′-carotenoate Fat: 3.3 mg/kg
  Analytical Content as Equivalent of Ethyl β-apo-8′-carotenoate Plasma: 13.4 mg/kg
  Analytical Content as Equivalent of Ethyl β-apo-8′-carotenoate Skin: 4.1 mg/kg
[2]
  Analytical Content as Equivalent of Ethyl β-apo-8′-carotenoate Fat: 1.2 mg/kg
  Analytical Content as Equivalent of Ethyl β-apo-8′-carotenoate Plasma: 6.0 mg/kg
  Analytical Content as Equivalent of Ethyl β-apo-8′-carotenoate Skin: 1.6 mg/kg
[3]
  Analytical Content as Equivalent of Ethyl β-apo-8′-carotenoate Fat: 1.9 mg/kg
  Analytical Content as Equivalent of Ethyl β-apo-8′-carotenoate Plasma: 8.6 mg/kg
  Analytical Content as Equivalent of Ethyl β-apo-8′-carotenoate Skin: 2.6 mg/kg
Trial MC-11/99, 20 mg/kg feed
  Analytical Content as Equivalent of Ethyl β-apo-8′-carotenoate Fat: 2.9 mg/kg
  Analytical Content as Equivalent of Ethyl β-apo-8′-carotenoate Plasma: 13.3 mg/kg
  Analytical Content as Equivalent of Ethyl β-apo-8′-carotenoate Skin: 3.7 mg/kg
Trial MC-11/99, 30 mg/kg feed
  Analytical Content as Equivalent of Ethyl β-apo-8′-carotenoate Fat: 3.4 mg/kg
  Analytical Content as Equivalent of Ethyl β-apo-8′-carotenoate Plasma: 18.3 mg/kg
  Analytical Content as Equivalent of Ethyl β-apo-8′-carotenoate Skin: 6.1 mg/kg
Trial MC-11/99, 45 mg/kg feed
  Analytical Content as Equivalent of Ethyl β-apo-8′-carotenoate Fat: 6.4 mg/kg
  Analytical Content as Equivalent of Ethyl β-apo-8′-carotenoate Plasma: 30.6 mg/kg
  Analytical Content as Equivalent of Ethyl β-apo-8′-carotenoate Skin: 9.0 mg/kg
Trial MC-24/98, 15 mg/kg feed
  Analytical Content as Equivalent of Ethyl β-apo-8′-carotenoate Fat: 2.3 mg/kg
  Analytical Content as Equivalent of Ethyl β-apo-8′-carotenoate Plasma: 10.0 mg/kg
  Analytical Content as Equivalent of Ethyl β-apo-8′-carotenoate Skin: 2.5 mg/kg
Trial MC-24/98, 30 mg/kg feed
  Analytical Content as Equivalent of Ethyl β-apo-8′-carotenoate Fat: 4.5 mg/kg
  Analytical Content as Equivalent of Ethyl β-apo-8′-carotenoate Plasma: 19.9 mg/kg
  Analytical Content as Equivalent of Ethyl β-apo-8′-carotenoate Skin: 5.6 mg/kg

## CC(C=CC=C(C)C=CC1=C(C)CCCC1(C)C)=CC=CC=C(C)C=CC=C(C)C(=O)OC(C)(C)C [compound (18), tert. butyl beta-apo-8′-carotenoate]
[1]
  Analytical Content as Equivalent of Ethyl β-apo-8′-carotenoate Fat %: 113%
  Analytical Content as Equivalent of Ethyl β-apo-8′-carotenoate Plasma %: 103%
  Analytical Content as Equivalent of Ethyl β-apo-8′-carotenoate Skin %: 198%
Average over doses, in relation to the controls (CAROPHYLL Yellow) of the same trial, Table 3, listed as tert. Butyl β-apo-8′-carotenoate
  Analytical Content as Equivalent of Ethyl β-apo-8′-carotenoate Skin %: 189%
  concentrations determined as equivalents of the ethyl β-apo-8′-carotenoate, in the skin: substantially higher
Trial MC-24/99, 20 mg/kg feed
  Analytical Content as Equivalent of Ethyl β-apo-8′-carotenoate Fat: 3.7 mg/kg
  Analytical Content as Equivalent of Ethyl β-apo-8′-carotenoate Plasma: 12.2 mg/kg
  Analytical Content as Equivalent of Ethyl β-apo-8′-carotenoate Skin: 5.4 mg/kg
[4]
  Analytical Content as Equivalent of Ethyl β-apo-8′-carotenoate Fat %: 119%
  Analytical Content as Equivalent of Ethyl β-apo-8′-carotenoate Plasma %: 117%
  Analytical Content as Equivalent of Ethyl β-apo-8′-carotenoate Skin %: 194%
Trial MC-24/99, 30 mg/kg feed
  Analytical Content as Equivalent of Ethyl β-apo-8′-carotenoate Fat: 4.6 mg/kg
  Analytical Content as Equivalent of Ethyl β-apo-8′-carotenoate Plasma: 14.1 mg/kg
  Analytical Content as Equivalent of Ethyl β-apo-8′-carotenoate Skin: 6.4 mg/kg
[5]
  Analytical Content as Equivalent of Ethyl β-apo-8′-carotenoate Fat %: 107%
  Analytical Content as Equivalent of Ethyl β-apo-8′-carotenoate Plasma %: 88%
  Analytical Content as Equivalent of Ethyl β-apo-8′-carotenoate Skin %: 184%

## CCCC(C)OC(=O)C(C)=CC=CC(C)=CC=CC=C(C)C=CC=C(C)C=CC1=C(C)CCCC1(C)C (stereo not drawn) [compound (19), 2-pentyl beta-apo-8′-carotenoate]
[1]
  Analytical Content as Equivalent of Ethyl β-apo-8′-carotenoate Fat %: 85%
  Analytical Content as Equivalent of Ethyl β-apo-8′-carotenoate Plasma %: 88%
  Analytical Content as Equivalent of Ethyl β-apo-8′-carotenoate Skin %: 134%
  concentrations determined as equivalents of the ethyl β-apo-8′-carotenoate, in the skin: substantially higher
Trial MC-24/99, 20 mg/kg feed
  Analytical Content as Equivalent of Ethyl β-apo-8′-carotenoate Fat: 2.6 mg/kg
  Analytical Content as Equivalent of Ethyl β-apo-8′-carotenoate Plasma: 9.6 mg/kg
  Analytical Content as Equivalent of Ethyl β-apo-8′-carotenoate Skin: 3.6 mg/kg
[4]
  Analytical Content as Equivalent of Ethyl β-apo-8′-carotenoate Fat %: 83%
  Analytical Content as Equivalent of Ethyl β-apo-8′-carotenoate Plasma %: 93%
  Analytical Content as Equivalent of Ethyl β-apo-8′-carotenoate Skin %: 128%
Trial MC-24/99, 30 mg/kg feed
  Analytical Content as Equivalent of Ethyl β-apo-8′-carotenoate Fat: 3.8 mg/kg
  Analytical Content as Equivalent of Ethyl β-apo-8′-carotenoate Plasma: 13.3 mg/kg
  Analytical Content as Equivalent of Ethyl β-apo-8′-carotenoate Skin: 4.8 mg/kg
[5]
  Analytical Content as Equivalent of Ethyl β-apo-8′-carotenoate Fat %: 87%
  Analytical Content as Equivalent of Ethyl β-apo-8′-carotenoate Plasma %: 82%
  Analytical Content as Equivalent of Ethyl β-apo-8′-carotenoate Skin %: 139%
